The text below walks through data of US10202351B2, “Pyrazolyl derivatives as pest control agents” (BAYER ANIMAL HEALTH GMBH, priority 2015, dated 2019).

Common to all, as to type: in vivo
One assay relates to Spodoptera frugiperda. Put plainly: Spodoptera frugiperda spray test. Particulars: application rate 100 g/ha, caterpillars on maize leaf discs, after 7 days. On the procedure:
Solvent: 78.0 parts by weight of acetone • • 1.5 parts by weight of dimethylformamide Emulsifier: alkylaryl polyglycol ether […] To produce further test concentrations, the formulation is diluted with emulsifier-containing water. Leaf discs of maize (Zea mays) are sprayed with an active compound formulation of the desired concentration and, after drying, populated with caterpillars of the armyworm (Spodoptera frugiperda).

In the next assay the test system is Phaedon cochleariae. Briefly: Phaedon cochleariae spray test. To be noted: application rate 100 g/ha, larvae on Chinese cabbage leaf discs, after 7 days. On the procedure:
Solvent: 78.0 parts by weight of acetone • • 1.5 parts by weight of dimethylformamide Emulsifier: alkylaryl polyglycol ether […] To produce further test concentrations, the formulation is diluted with emulsifier-containing water. Discs of Chinese cabbage leaves (Brassica pekinensis) are sprayed with an active ingredient formulation of the desired concentration and, after drying, populated with larvae of the mustard beetle (Phaedon cochleariae).

A further assay concerns Ctenocephalides felis. Put plainly: Ctenocephalides felis oral test. To be noted: application rate 100 ppm in citrated cattle blood, kill after 2 days. The source says: Solvent: dimethyl sulfoxide […] Dilution with citrated cattle blood gives the desired concentration. About 20 unfed adult cat fleas (Ctenocephalides felis) are placed into a chamber which is closed at the top and bottom with gauze. A metal cylinder whose bottom end is closed with parafilm is placed onto the chamber. The cylinder contains the blood/active ingredient formulation, which can be imbibed by the fleas through the parafilm membrane.

For a further assay, the system named is Boophilus microplus. Briefly: Boophilus microplus injection test. To be noted: application rate 20 μg/animal, after 7 days, laying of fertile eggs. On the procedure: Solvent: dimethyl sulfoxide […] The animals are transferred into dishes and kept in a climate-controlled room. Efficacy is assessed after 7 days by laying of fertile eggs. Eggs which are not visibly fertile are stored in a climate-controlled cabinet until the larvae hatch after about 42 days.

The test system of the next assay is Lucilia cuprina. Briefly: Lucilia cuprina test. To be noted: application rate 100 ppm, L1 larvae, kill after 2 days. As to the method:
(§1) Solvent: dimethyl sulfoxide
(§2) To produce a suitable preparation of active compound, 10 mg of active compound are mixed with 0.5 ml of dimethyl sulfoxide, and the concentrate is diluted with water to the desired concentration.
About 20 L1 larvae of the Australian sheep blowfly (Lucilia cuprina) are transferred into a test vessel containing minced horsemeat and the active compound formulation of the desired concentration.
After 2 days, the kill in % is determined. 100% means that all the larvae have been killed; 0% means that no larvae have been killed.

In the next assay the test system is Musca domestica. Put plainly: Musca domestica test. To be noted: application rate 100 ppm, adult houseflies, kill after 2 days. As to the method:
as §1, §2
Vessels containing a sponge treated with sugar solution and the active ingredient formulation of the desired concentration are populated with 10 adult houseflies (Musca domestica)).
After 2 days, the kill in % is determined. 100% means that all of the flies have been killed; 0% means that none of the flies have been killed.

In the case of `Cc1ncc(-c2cnn(-c3c(Cl)cc(C(F)(C(F)(F)F)C(F)(F)F)cc3Cl)c2)cc1NC(=O)c1ccncc1` [Example 18], the efficacy in the assay with Spodoptera frugiperda was 100%; with Phaedon cochleariae, 83%.

For `COc1cc(C(=O)Nc2cccc(-c3cnn(-c4c(C)cc(C(F)(C(F)(F)F)C(F)(F)F)cc4C(F)(F)F)c3)c2F)ccc1F` [Example 71], the efficacy in the assay on Ctenocephalides felis, with Spodoptera frugiperda, in the assay with Boophilus microplus and in the assay on Phaedon cochleariae was 100% throughout.

For `COc1cccc(C(=O)Nc2cccc(-c3cnn(-c4c(C)cc(C(F)(C(F)(F)F)C(F)(F)F)cc4C(F)(F)F)c3)c2F)c1` [Example 73], the efficacy in the assay with Ctenocephalides felis, in the assay with Spodoptera frugiperda, with Boophilus microplus, in the assay with Lucilia cuprina and in the assay on Phaedon cochleariae was 100% each time.

Consider `Cc1cc(C(F)(C(F)(F)F)C(F)(F)F)cc(C(F)(F)F)c1-n1cc(-c2ccc(F)c(NC(=O)c3ccc(Cl)nc3)c2)cn1` [Example 49], for which the efficacy with Ctenocephalides felis, in the assay on Spodoptera frugiperda, in the assay on Lucilia cuprina, in the assay on Musca domestica and in the assay on Phaedon cochleariae was 100% in each case.

For `COc1ccc(C(=O)Nc2cccc(-c3cnn(-c4c(C)cc(C(F)(C(F)(F)F)C(F)(F)F)cc4C(F)(F)F)c3)c2F)cc1F` [Example 72], the efficacy in the assay on Ctenocephalides felis was 95%; in the assay on Boophilus microplus, 100%; in the assay on Lucilia cuprina, 100%; with Phaedon cochleariae, 100%.

As for `Cc1cc(C(F)(C(F)(F)F)C(F)(F)F)cc(C(F)(F)F)c1-n1cc(-c2ccc(N(C)C)c(NC(=O)C3(C)CC3)c2)cn1` [Example 36], the efficacy with Ctenocephalides felis, in the assay with Spodoptera frugiperda, in the assay on Boophilus microplus, in the assay on Lucilia cuprina and in the assay on Phaedon cochleariae was 100% in each case.

Consider `COc1cc(C(=O)Nc2cc(-c3cnn(-c4c(C)cc(C(F)(C(F)(F)F)C(F)(F)F)cc4C(F)(F)F)c3)ccc2F)ccc1C` [Example 47], for which the efficacy is 80% in the assay with Ctenocephalides felis and 100% in the assay on Boophilus microplus.

In the assay on Phaedon cochleariae, `COc1cc(C(=O)Nc2cc(-c3cnn(-c4c(C)cc(C(F)(C(F)(F)F)C(F)(F)F)cc4C(F)(F)F)c3)ccc2F)ccc1F` [Example 28] came in with an efficacy of 100%.

`Cc1cc(C(F)(C(F)(F)F)C(F)(F)F)cc(C(F)(F)F)c1-n1cc(-c2ccc(N(C)C)c(NC(=O)c3ccsc3)c2)cn1` [Example 37]: the efficacy with Ctenocephalides felis, with Spodoptera frugiperda, with Boophilus microplus, in the assay with Lucilia cuprina and with Phaedon cochleariae was 100% throughout.

For the compound `Cc1cc(C(F)(C(F)(F)F)C(F)(F)F)cc(C)c1-n1cc(-c2ccc(N(C)C)c(NC(=O)c3ccc(F)cc3)c2)cn1` [Example 21], the efficacy with Ctenocephalides felis, with Spodoptera frugiperda and with Boophilus microplus was 100% throughout.

The compound `COc1ccc(C(=O)Nc2ccc(F)c(-c3cnn(-c4c(C)cc(C(F)(C(F)(F)F)C(F)(F)F)cc4C(F)(F)F)c3)c2)cc1F` [Example 2-6] returned an efficacy with Boophilus microplus of 80%.

With `COc1ccc(C(=O)Nc2cc(-c3cnn(-c4c(C)cc(C(F)(C(F)(F)F)C(F)(F)F)cc4C(F)(F)F)c3)ccc2F)cc1F` [Example 55], the efficacy in the assay with Ctenocephalides felis is given as 100%; in the assay with Boophilus microplus it was 100%; in the assay with Lucilia cuprina, 80%; in the assay on Phaedon cochleariae, 100%.

For the compound `Cc1cc(C(F)(C(F)(F)F)C(F)(F)F)cc(C(F)(F)F)c1-n1cc(-c2ccc(F)c(NC(=O)c3cccs3)c2F)cn1` [Example 26], the efficacy in the assay with Ctenocephalides felis, with Spodoptera frugiperda, in the assay with Boophilus microplus, with Lucilia cuprina and in the assay with Phaedon cochleariae was 100% in each case.

In the case of `Cc1cc(C(F)(C(F)(F)F)C(F)(F)F)cc(C(F)(F)F)c1-n1cc(-c2cccc(NC(=O)c3ccsc3)c2F)cn1` [Example 75], the figures for the efficacy with Ctenocephalides felis, in the assay with Boophilus microplus and in the assay with Lucilia cuprina were 95%, 100% and 80%, respectively.

With `COc1cc(C(=O)Nc2cccc(-c3cnn(-c4c(C)cc(C(F)(C(F)(F)F)C(F)(F)F)cc4C(F)(F)F)c3)c2F)ccc1C#N` [Example 74], the efficacy in the assay with Spodoptera frugiperda, in the assay with Boophilus microplus, with Lucilia cuprina and with Phaedon cochleariae was 100% throughout.

For `Cc1cc(C(F)(C(F)(F)F)C(F)(F)F)cc(C(F)(F)F)c1-n1cc(-c2cc(NC(=O)c3cnco3)ccc2F)cn1` [Example 2-11], the efficacy in the assay with Ctenocephalides felis, in the assay with Spodoptera frugiperda, in the assay with Boophilus microplus, in the assay with Lucilia cuprina and in the assay on Phaedon cochleariae was 100% each time.

On to `Cc1cc(C(F)(C(F)(F)F)C(F)(F)F)cc(C(F)(F)F)c1-n1cc(-c2cccc(NC(=O)c3ccc(Cl)nc3)c2F)cn1` [Example 70], for which the efficacy in the assay on Ctenocephalides felis, in the assay with Spodoptera frugiperda, in the assay on Boophilus microplus, in the assay on Lucilia cuprina, in the assay with Musca domestica and in the assay with Phaedon cochleariae was 100% throughout.

Consider `Cc1cc(C(F)(C(F)(F)F)C(F)(F)F)cc(C(F)(F)F)c1-n1cc(-c2cccc(NC(=O)c3cccs3)c2F)cn1` [Example 76], for which the efficacy in the assay with Ctenocephalides felis, in the assay on Spodoptera frugiperda, in the assay with Boophilus microplus, in the assay on Lucilia cuprina and in the assay on Phaedon cochleariae was 100% each time.

With `Cc1cc(C(F)(C(F)(F)F)C(F)(F)F)cc(C(F)(F)F)c1-n1cc(-c2cc(NC(=O)c3ccccc3)ccc2F)cn1` [Example 2-10], the efficacy in the assay on Boophilus microplus was found to be 100%.

In the case of `Cc1cc(C(=O)Nc2cc(-c3cnn(-c4c(C)cc(C(F)(C(F)(F)F)C(F)(F)F)cc4C(F)(F)F)c3)ccc2F)ccc1F` [Example 53], the efficacy in the assay on Ctenocephalides felis, in the assay with Boophilus microplus and in the assay with Musca domestica was 100% each time.

Regarding `Cc1ccc(C(=O)Nc2cc(-c3cnn(-c4c(C)cc(C(F)(C(F)(F)F)C(F)(F)F)cc4C(F)(F)F)c3)ccc2F)cc1C` [Example 52], the efficacy in the assay on Boophilus microplus and with Musca domestica was 100% in each case.

In turn, `COc1cc(C(=O)Nc2ccc(F)c(-c3cnn(-c4c(C)cc(C(F)(C(F)(F)F)C(F)(F)F)cc4C(F)(F)F)c3)c2)ccc1F` [Example 2-5] registered an efficacy with Boophilus microplus of 100%.

In the case of `Cc1cc(C(F)(C(F)(F)F)C(F)(F)F)cc(C(F)(F)F)c1-n1cc(-c2ccc(F)c(NC(=O)c3ccc(Cl)c(F)c3)c2)cn1` [Example 56], the efficacy in the assay with Ctenocephalides felis, with Boophilus microplus and in the assay on Lucilia cuprina was 100% each time.

For the compound `Cc1cc(C(F)(C(F)(F)F)C(F)(F)F)cc(C(F)(F)F)c1-n1cc(-c2ccc(F)c(N(C)C(=O)c3ccc(F)nc3)c2)cn1` [Example 48], the efficacy in the assay with Ctenocephalides felis, with Spodoptera frugiperda, in the assay with Boophilus microplus, in the assay with Lucilia cuprina, in the assay on Musca domestica and in the assay on Phaedon cochleariae was 100% throughout.

`COc1cc(C(=O)Nc2c(F)ccc(-c3cnn(-c4c(C)cc(C(F)(C(F)(F)F)C(F)(F)F)cc4C(F)(F)F)c3)c2F)ccc1F` [Example 27]: the efficacy with Ctenocephalides felis amounted to 100%; in the assay on Boophilus microplus, 100%; with Lucilia cuprina, 90%.

As for `CCOc1cc(C(=O)Nc2cc(-c3cnn(-c4c(C)cc(C(F)(C(F)(F)F)C(F)(F)F)cc4C(F)(F)F)c3)ccc2F)ccc1F` [Example 29], the efficacy in the assay on Ctenocephalides felis came to 80%; in the assay with Boophilus microplus, 100%.

Turning to `COc1cc(C(=O)Nc2ccc(F)c(-c3cnn(-c4c(C)cc(C(F)(C(F)(F)F)C(F)(F)F)cc4C(F)(F)F)c3)c2)ccc1C#N` [Example 2-8], the efficacy with Boophilus microplus amounted to 100%; in the assay with Lucilia cuprina, 90%; in the assay on Phaedon cochleariae, 83%.

Take `COc1cc(C(=O)Nc2cc(-c3cnn(-c4c(C)cc(C(F)(C(F)(F)F)C(F)(F)F)cc4C(F)(F)F)c3)ccc2F)ccc1C#N` [Example 35]: the efficacy with Spodoptera frugiperda and with Phaedon cochleariae was 100% in each case.

With `Cc1cc(C(F)(C(F)(F)F)C(F)(F)F)cc(C(F)(F)F)c1-n1cc(-c2cc(NC(=O)c3ccsc3)ccc2F)cn1` [Example 2-9], the results for the efficacy in the assay with Ctenocephalides felis, in the assay with Boophilus microplus and with Lucilia cuprina were 95%, 100% and 100%, respectively.
